Measurements as given in PMC5532403, “Potential for a novel manganese porphyrin compound as adjuvant canine lymphoma therapy” (Cancer Chemotherapy and Pharmacology, 2017).
Several values for one entry are separate records, joined by “and”; a condition that tells them apart may be missing. Equal values may be shown once. Entries after “also recorded” stand apart in the source; their conditions may differ. Read-outs that look alike come from different tables or passages of the source.

How the values were obtained:
[1] = test system: normal dogs; assay: Laboratory health assessments (complete blood cell count, biochemistry panel, urinalysis); type: in vivo, dog
Protocol: (§1) Safety was assessed by evaluation of standard physical and laboratory parameters of systemic health. A full physical examination was performed prior to initiation of the study and on each treatment and sampling day. Indirect blood pressure monitoring was performed using Cardell Vet Monitor 9401 Blood Pressure Monitor. Pulse was quantified as heart beats per minute according to manual counts, as well as quantified with a blood pressure monitor. There was good correlation between pulse rates counted with manual methods compared to the blood pressure monitor (Figure S1). Standard laboratory assessments (complete blood cell count, biochemistry panel, urinalysis) were repeated throughout the phases of the study to assess systemic health.

[2] = test system: normal dogs; assay: Pulse monitoring in multiple dose study; type: in vivo, dog; details: 0.25 mg/kg sc Mon/Wed/Fri
Protocol: as §1

[3] = test system: normal dogs; assay: Maximally tolerated dose / single-dose safety monitoring (pulse, blood pressure, drug reactions); type: in vivo, dog; details: for average heart rate at peak: 1 h after injection
Protocol: as §1
Thus, 1 mg/kg was selected as a safe initial dose for the MTD and single-dose PK studies in this work.

[4] = test system: normal dogs; assay: Histopathologic evaluation of necropsy tissues; type: in vivo, dog; details: 0.25 mg/kg Mon/Wed/Fri five doses
Protocol: Tissue samples collected at necropsy were stored in 10% neutral buffered formalin, paraffin embedded, sectioned, and stained with hematoxylin and eosin. Histopathologic evaluations of the tissues were performed by a veterinary pathologist (KGB).

[5] = design: method as in unpublished data; details: rats, 1 mg/kg; ref unpublished data; cited from earlier work
[6] = Single-dose pharmacokinetic study, plasma MnBuOE by LC-MS/MS; type: in vivo, dog
Protocol: Intravenous catheters were placed in the jugular vein of each dog under heavy sedation (dexmedetomidine, 500 mcg/m^2) 24-h prior to initiation of the pharmacokinetic study to facilitate blood sampling. Baseline pulse and blood pressure (Cardell Vet Monitor 9401 Blood Pressure Monitor) were recorded prior administration of MnBuOE. MnBuOE (5.64 mg/mL) was injected subcutaneously in the dorsal intrascapular region. Following injection, 3–6 mL of blood was collected after 10 min, 30 min, 1 h, 2 h, 4 h, 6 h, 8 h, 24 h, 48 h, 72 h, 7 days, and 14 days into lithium heparin tubes (Vacutainer, 1.3 mL). Whole blood was centrifuged at 1500×g for 20 min, and plasma was collected and stored in 1% citric acid at −80 °C.
Relevant PK parameters (e.g. C max, T max, AUC, clearance, t 1/2) were obtained by compartmental and non-compartmental modules within WinNonlin v. Plasma MnBuOE levels peaked at 30 min post-injection with a mean concentration of 3.993 μM (Fig. 2a), followed by a complex tissue distribution profile (non-linear trace in log-linear plot) within first 6 h post injection (Fig. 2a). […] Compartmental (first-order absorption—2 compartment model) calculations including 0–48 h data were performed on the averaged PK profile for the purpose of obtaining PK parameters needed for the simulation of the multi-dose regimen.

[7] = test system: nonhuman primates; design: method as in PMID 27098749; details: sc every 3 days for 5 weeks; cited from earlier work
[8] = design: method as in PMID 27098749; details: non-human primates, 1 mg/kg; cited from earlier work
[9] = mice, cited from earlier work
[10] = test system: mice; design: method as in PMID 27098749; details: sc every 3 days for 5 weeks; cited from earlier work
[11] = Multiple dose pharmacokinetic study, plasma MnBuOE; type: in vivo, dog
Protocol: MnBuOE was administered at 0.25 mg/kg Monday, Wednesday, and Friday (MWF). Dogs were treated concurrently with diphenhydramine (2 mg/kg every 12 h), famotidine (0.5 mg/kg every 12 h), and prednisone (1 mg/kg every 12 h) throughout these studies. Blood/plasma was collected at two time points: 1 h post dose (expected high levels but “safely” away the peak at C max = 0.5 h) and just prior to injection (trough level). The results are presented on Fig. 4a. As expected, the trough levels measured were very low. […] This would imply that no change in the expected mild acute side effects should be observed. […] The change in pulse increased over time for both treatment week and day of the week. Baseline pulse prior to injection was not altered with multiple doses of MnBuOE.

[12] = test system: primary human lymphoma samples; design: method as in PMID 19549914, PMID 25725417; details: ex vivo; cited from earlier work
[13] = test system: murine lymphoma cell lines; design: method as in PMID 19549914, PMID 25725417; details: in vitro; cited from earlier work
[14] = design: method as in PMID 26496207; details: cited from earlier work
[15] = 3 weeks post 0.25 mg/kg Mon/Wed/Fri, concurrent oral medications
[16] = single 1 mg/kg sc, first order absorption two compartments
[17] = single 1 mg/kg sc, non-compartmental
[18] = 0.25 mg/kg sc Mon/Wed/Fri for 3 weeks, 1 h post-injection

CCCCOCC[n+]1ccccc1-c1c2nc(c(-c3cccc[n+]3CCOCCCC)c3ccc([n-]3)c(-c3cccc[n+]3CCOCCCC)c3nc(c(-c4cccc[n+]4CCOCCCC)c4ccc1[n-]4)C=C3)C=C2.[Mn+3] [MnBuOE, Mn(III) meso-tetrakis (N-n-butoxyetylpyridium-2-yl) porphyrin]
Urinalysis ([1]; 3 weeks post 0.25 mg/kg Mon/Wed/Fri): Alkaline urine (pH = 9) (n = 2/3)
Complete blood cell count ([1]; 3 weeks post 0.25 mg/kg Mon/Wed/Fri, concurrent diphenhydramine, famotidine, prednisone): Stress leukogram (exogenous glucocorticoids) (n = 3/3)
Chemistry panel: acid-base finding [1, 15]: Slight to mild metabolic acidosis (increased anion gap)
Chemistry panel: cholesterol finding [1, 15]: Mild hypocholesterolemia
Chemistry panel: liver enzyme finding [1, 15]: Mildly increased liver enzyme activity (ALP, ALT)
Chemistry panel ([1]; 48 h post 0.25 mg/kg): No remarkable changes in serum biochemistries were seen; also recorded: Unremarkable
Complete blood cell count ([1]; 48 h post 0.25 mg/kg): Unremarkable
Urinalysis ([1]; 48 h post 0.25 mg/kg, one dog analyzed): Alkaline urine (pH = 9) (n = 1/1)
Chemistry panel ([1]; 48 h post 1 mg/kg): Unremarkable
Complete blood cell count ([1]; 48 h post 1 mg/kg): Unremarkable
Urinalysis ([1]; 48 h post 1 mg/kg): Alkaline urine (pH = 9) (n = 2/3)
mean anion gap ([1]; final day of 3-week 0.25 mg/kg study, reference range 11.2–19.9): 21.5
mean ALT ([1]; final day of 3-week 0.25 mg/kg study, reference range 12–54 IU/L): 133 IU/L
mean ALP ([1]; final day of 3-week 0.25 mg/kg study, reference range 16–140 IU/L): 203 IU/L
mean cholesterol ([1]; final day of 3-week 0.25 mg/kg study, reference range 124–344 mg/dL): 96 mg/dL
heart rate 1 h after each injection [2]: Mildly to moderately increased heart rate
baseline pulse prior to injection ([2]; multiple doses): not altered
heart rate following injection ([3]; 0.25 mg/kg sc): 104–116 beats per minute
pulse 24 h post-injection ([3]; 0.25 mg/kg sc): did not alter pulse rate 24 h post-injection; also recorded: normalized by 24 h
tachycardia grade ([3]; 0.25 mg/kg sc): did not induce a clinical tachycardia; also recorded: mild increase in heart rate
anaphylactic or local drug reactions ([3]; 0.25 mg/kg sc with premedication): No anaphylactic or local drug reactions were observed
local drug reaction at the injection site ([3]; 0.5 mg/kg sc): No local drug reaction at the injection site was noted
pulse 24 h post-injection ([3]; 0.5 mg/kg sc): remained slightly increased
tachycardia grade ([3]; 0.5 mg/kg sc): mild to moderate tachycardia
average heart rate at peak ([3]; 0.5 mg/kg sc, one dog): 144 beats per minute
anaphylactic reaction ([3]; 0.5 mg/kg sc, one dog, pre-administration of diphenhydramine, famotidine, prednisone): did not occur
blood pressure change with tachycardia ([3]; 1 mg/kg sc): not associated with changes in blood pressure
local drug reactions in the subcutaneous site of injection ([3]; 1 mg/kg sc): occurred with two of the dogs
persistence of tachycardia ([3]; 1 mg/kg sc): at least 6 h
pulse 24 h post-injection ([3]; 1 mg/kg sc): remained increased compared to resting heart rates
tachycardia grade ([3]; 1 mg/kg sc): severe sinus tachycardia
average heart rate at peak ([3]; 1 mg/kg sc): 210 beats per minute
time to development of acute anaphylactic drug reaction ([3]; 1 mg/kg sc, following injection): 15 to 20 min
acute drug reaction ([3]; 1 mg/kg sc, no premedication): acute anaphylactic drug reaction; also recorded: induced an anaphylactic drug reaction
maximum tolerated dose (MTD) ([3]; sc, dogs, with premedication (anti-histamines, steroids)): 0.25 mg/kg
indirect blood pressure after single dose ([3]; single sc dose, Supplemental Fig. 2): subclinical fluctuations in recorded indirect blood pressures
Characteristics of lesion, kidney ([4]; necropsy): Acute, multifocal, mild Acute multifocal, moderate
Characteristics of lesion, liver ([4]; necropsy): Marked, multifocal to diffuse, random Marked, multifocal to diffuse, centrilobular to random Marked, diffuse, panlobular, random
Characteristics of lesion, lung ([4]; necropsy): Multifocal, mild, neutrophilic, sterile Multifocal, moderate, neutrophilic sterile
Characteristics of lesion, subcutaneous adipose ([4]; necropsy): Multifocal, mild
Histopathologic appearance, lymph nodes ([4]; necropsy): mildly reactive
Incidence of diagnosis, kidney ([4]; necropsy): n = 3/3
Incidence of diagnosis, liver ([4]; necropsy): n = 3/3
Incidence of diagnosis, lung ([4]; necropsy): n = 3/3
Incidence of diagnosis, subcutaneous adipose ([4]; necropsy): n = 3/3
Histopathologic diagnosis, kidney ([4]; necropsy 48 h after last dose): acute, mild to moderate tubular degeneration and necrosis of the kidney
Histopathologic diagnosis, liver ([4]; necropsy 48 h after last dose): marked hydropic degeneration of the liver
Histopathologic diagnosis, lung ([4]; necropsy 48 h after last dose): mild to moderate sterile bronchointerstitial/interstitial pneumonia
Histopathologic diagnosis, subcutaneous adipose (injection site) ([4]; necropsy 48 h after last dose): mild necrosupporative/granulomatous inflammation; also recorded: Necrosuppurative/granulomatous steatitis
Cmax [5]: 1000 nM
plasma half-life t 1/2, primary elimination from central compartment ([6]; single 1 mg/kg sc, 6 to 48 h): 7 h
Cmax ([6]; single 1 mg/kg sc, 30 min post-injection, 1 mg/kg, read-out: peak plasma concentration (C max), mean): 3990 nM and 4000 nM
estimated terminal half-life (secondary processes) ([6]; single 1 mg/kg sc, 48 h to 14 days): 480 h
MnBuOE remaining in plasma ([6]; single 1 mg/kg sc, at 48 h): 1%
time of peak plasma drug concentration (T max) ([6]; single 1 mg/kg sc, post-injection): 0.5 h
AUCinfinite [6, 16]: 42.52
C max [6, 16]: 4830 ng/mL
CL/F [6, 16]: 0.02 L/h/kg body weight
V/F (4–48 h process) [6, 16]: 0.14 L/kg body weight
t 1/2 (4–48 h) [6, 16]: 6.64 h
t max ([6]; single 1 mg/kg sc, first order absorption two compartments, averaged profile 0–48 h): 0.46 h
AUC0–48h [6, 17]: 52.09
AUCinfinite [6, 17]: 57.82
C max [6, 17]: 5000 ng/mL
CL/F [6, 17]: 0.020 L/h/kg body weight
V/F (4–48 h process) [6, 17]: 0.21 L/kg body weight
V/F (7–14 day process) [6, 17]: 13.42 L/kg body weight
t 1/2 (4–48 h) [6, 17]: 7.13 h
t 1/2 (7–14 day) [6, 17]: 509.8 h
t max ([6]; single 1 mg/kg sc, non-compartmental (WinNonlin), individual dogs): 0.5 h
drug eliminated from the plasma ([6]; single-dose 14-day PK study, after 48 h): 99%
no adverse effects level (NOAEL), loading dose [7]: 6 mg/kg
no adverse effects level (NOAEL), maintenance dose [7]: 2 mg/kg
Cmax [8]: 1600 nM
Cmax ([9]; 1 mg/kg, ref unpublished data): 1000 nM
Cmax ([9]; dose adjusted from 6 mg/kg): ~300 nM
no adverse effects level (NOAEL), loading dose [10]: 12 mg/kg
no adverse effects level (NOAEL), maintenance dose [10]: 2 mg/kg
plasma MnBuOE concentration following the initial dose [11, 18]: 1.4 µM
plasma MnBuOE concentration plateau with subsequent doses [11, 18]: 0.85 to 1.1 µM
trough plasma levels ([11]; 0.25 mg/kg sc Mon/Wed/Fri, just prior to injection): very low
accumulation of the drug in plasma ([11]; 0.25 mg/kg sc Mon/Wed/Fri, long-term treatment): no accumulation of the drug in plasma was observed; also recorded: no accumulation observed over time

CC[n+]1ccccc1-c1c2nc(c(-c3cccc[n+]3CC)c3ccc([n-]3)c(-c3cccc[n+]3CC)c3nc(c(-c4cccc[n+]4CC)c4ccc1[n-]4)C=C3)C=C2.[Mn+3] [MnTE-2-PyP5+]
effect on chemotherapeutic response [12]: enhanced the chemotherapeutic response
effect on chemotherapeutic response [13]: enhanced the chemotherapeutic response
tissue accumulation, tumor compared to normal tissue [14]: accumulates preferentially in tumor tissue compared to normal tissue
